Legend:
[1] = Ability to inhibit proliferation in a mixture of human lymphocytes from two unrelated donors in MLR (human mixed lymphocyte reaction); format: functional, cell-based
[2] = biological target: Dihydroorotate dehydrogenase (quinone), mitochondrial (Homo sapiens, UniProt Q02127); assay: Immunosuppressive effect in an isolated enzyme assay using partially purified Dihydroorotate dehydrogenase from human liver for inhibition of the formation of orotate from radiolabeled dihydroorotate
Dihydroorotate dehydrogenase (quinone), mitochondrial, sequence (Q02127 whole entry): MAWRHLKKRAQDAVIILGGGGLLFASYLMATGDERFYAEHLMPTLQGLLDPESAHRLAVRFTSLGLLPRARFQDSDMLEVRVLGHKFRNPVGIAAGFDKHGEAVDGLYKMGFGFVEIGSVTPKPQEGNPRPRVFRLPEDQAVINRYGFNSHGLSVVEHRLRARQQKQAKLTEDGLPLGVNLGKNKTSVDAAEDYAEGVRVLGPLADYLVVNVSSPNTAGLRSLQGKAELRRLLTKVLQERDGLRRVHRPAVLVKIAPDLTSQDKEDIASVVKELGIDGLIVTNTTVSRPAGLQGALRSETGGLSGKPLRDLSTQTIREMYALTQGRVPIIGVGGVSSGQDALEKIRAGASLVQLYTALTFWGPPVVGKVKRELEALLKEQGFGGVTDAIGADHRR

Row | SMILES | IC50 [1] | Ki [2]
1 | COc1cccc(-c2cccc3c(-c4nc5ccc(F)cc5c(C(=O)O)c4C)cn(C)c23)c1 | 190 nM | 32 nM
2 | CC(=O)N(c1cccc(-c2ccccc2)c1)c1nc2ccc(F)cc2c(C(=O)O)c1C | > 10000 nM | > 390 nM
3 | Cc1c(-c2cn(C)c3c(-c4ccccc4)cccc23)nc2ccc(F)cc2c1C(=O)O | 140 nM | 27 nM
4 | Cc1c(N(C)c2cccc(-c3ccccc3)c2)nc2ccc(F)cc2c1C(=O)O | > 10000 nM | 240 nM
5 | Cc1c(OCc2ccc(-c3ccccc3)cc2)nc2ccc(F)cc2c1C(=O)O | > 10000 nM | > 200 nM
6 | Cc1ccccc1-c1cccc2c1CCN2c1nc2ccc(F)cc2c(C(=O)O)c1C | 1.6 nM | 25 nM
7 | COc1cc(-c2ccccc2)c2c(c1)N(c1nc3ccc(F)cc3c(C(=O)O)c1C)CC2 | 35 nM | 22 nM
8 | Cc1c(Oc2ccccc2)nc2ccc(F)cc2c1C(=O)O | > 10000 nM | > 1000 nM
9 | Cc1c(-c2cccc3c(-c4ccccc4)cccc23)nc2ccc(F)cc2c1C(=O)O | 150 nM | 26 nM
10 | Cc1c(-c2cn(C)c3c(-c4cccc(C(F)(F)F)c4)cccc23)nc2ccc(F)cc2c1C(=O)O | 7 nM | 23 nM
11 | Cc1c(Oc2cccc(-c3ccccc3)c2)nc2ccc(F)cc2c1C(=O)O | 210 nM | 21 nM
12 | COc1ccccc1-c1cccc2c1CCN2c1nc2ccc(F)cc2c(C(=O)O)c1C | 4.1 nM | 30 nM
13 | Cc1c(Nc2ccccc2)nc2ccc(F)cc2c1C(=O)O | > 10000 nM | > 200 nM
14 | Cc1c(-n2cnc3c(-c4ccccc4)cccc32)nc2ccc(F)cc2c1C(=O)O | 4700 nM | 71 nM
15 | Cc1c(Oc2ccc(-c3ccccc3)cc2)nc2ccc(F)cc2c1C(=O)O | > 10000 nM | > 1000 nM
16 | Cc1c(Nc2ccc(-c3ccccc3)cc2)nc2ccc(F)cc2c1C(=O)O | > 10000 nM | > 430 nM
17 | Cc1c(N2CCc3c(-c4ccccc4F)cccc32)nc2ccc(F)cc2c1C(=O)O | 2.8 nM | 24 nM
18 | COc1ccccc1-c1cccc2c(-c3nc4ccc(F)cc4c(C(=O)O)c3C)cn(C)c12 | 650 nM | 40 nM
19 | Cc1c(N2CCc3c(-c4cccc(C(F)(F)F)c4)cccc32)nc2ccc(F)cc2c1C(=O)O | 0.41 nM | 24 nM
20 | COc1cccc(-c2cccc3c2CCN3c2nc3ccc(F)cc3c(C(=O)O)c2C)c1 | 4 nM | 34 nM
21 | Cc1c(Nc2cccc(-c3ccccc3)c2)nc2ccc(F)cc2c1C(=O)O | 340 nM | 83 nM
22 | Cc1c(-c2c[nH]c3c(-c4ccccc4)cccc23)nc2ccc(F)cc2c1C(=O)O | 1600 nM | > 130 nM
23 | Cc1c(-n2ccc3c(-c4ccccc4)cccc32)nc2ccc(F)cc2c1C(=O)O | 380 nM | 4.5 nM
24 | Cc1c(N2CCc3c(-c4ccccc4)cccc32)nc2ccc(F)cc2c1C(=O)O | 26 nM | 15 nM
25 | Cc1c(N2CCc3c(-c4ccccc4)cc(F)cc32)nc2ccc(F)cc2c1C(=O)O | 41 nM | 30 nM
26 | Cc1c(OCc2cccc(-c3ccccc3)c2)nc2ccc(F)cc2c1C(=O)O | > 10000 nM | 330 nM
27 | Cc1c(-c2ccc(-c3ccccc3F)cc2)nc2ccc(F)cc2c1C(=O)O [BREQUINAR SODIUM] | 15 nM | 
